Test results from ChEMBL document CHEMBL1155363, “4,4-Disubstituted cyclohexylamine based CCR5 chemokine receptor antagonists as anti-HIV-1 agents” (Bioorg Med Chem Lett, 2009).

system: Human immunodeficiency virus 1; assay: Antiviral activity against HIV1 Ba-L infected in HOS cells assessed as inhibition of viral infection; assay type: functional, organism-based; conditions: Human immunodeficiency virus 1, Ba-L

| Compound | IC50 [nM] |
| --- | --- |
| Cc1ccc(S(N)(=O)=O)c(C)c1C(=O)N[C@H]1CC[C@@](CCN2[C@@H]3CC[C@H]2C[C@@H](n2c(C)nc4ccccc42)C3)(c2ccccc2)CC1 | 2550 |
| Cc1nc2ccccc2n1[C@H]1C[C@H]2CC[C@@H](C1)N2CC[C@]1(c2ccccc2)CC[C@@H](NC(=O)c2ccc(Cl)c(S(N)(=O)=O)c2)CC1 | 1630 |
| Cc1ccc(S(N)(=O)=O)c(C)c1C(=O)N[C@H]1CC[C@](CCN2[C@@H]3CC[C@H]2C[C@@H](n2c(C)nc4ccccc42)C3)(c2ccccc2)CC1 | 1070 |
| Cc1nc2ccccc2n1[C@H]1C[C@H]2CC[C@@H](C1)N2CC[C@]1(c2ccccc2)CC[C@H](NC(=O)c2ccc(F)c(S(N)(=O)=O)c2)CC1 | 480 |
| CNS(=O)(=O)c1cc(Cl)c(C(=O)N[C@H]2CC[C@](CCN3[C@@H]4CC[C@H]3C[C@@H](n3c(C)nc5ccccc53)C4)(c3ccccc3)CC2)cc1F | 510 |
| Cc1nc2ccccc2n1[C@H]1C[C@H]2CC[C@@H](C1)N2CC[C@]1(c2ccccc2)CC[C@H](NC(=O)c2cc(S(=O)(=O)NC(C)C)c(Cl)cc2F)CC1 | 590 |
| CNS(=O)(=O)c1cc(C(=O)N[C@H]2CC[C@@H](CN3[C@@H]4CC[C@H]3C[C@@H](n3c(C)nc5ccccc53)C4)CC2)c(Cl)cc1F | > 20000 |
| Cc1nc2ccccc2n1[C@H]1C[C@H]2CC[C@@H](C1)N2CC[C@]1(c2ccccc2)CC[C@H](NC(=O)c2cc(NS(C)(=O)=O)c(Cl)cc2F)CC1 | 1480 |
| Cc1nc2ccccc2n1[C@H]1C[C@H]2CC[C@@H](C1)N2CCC[C@]1(c2ccccc2)CC[C@H](NC(=O)c2ccc(Cl)c(S(N)(=O)=O)c2)CC1 | 380 |
| Cc1ccnc(C)c1C(=O)N[C@H]1CC[C@](CCCN2[C@@H]3CC[C@H]2C[C@@H](n2c(C)nc4ccccc42)C3)(c2ccccc2)CC1 | 2190 |
| Cc1nc2ccccc2n1[C@H]1C[C@H]2CC[C@@H](C1)N2C[C@H]1CC[C@@H](NC(=O)c2ccc(Cl)c(S(N)(=O)=O)c2)CC1 | > 20000 |
| Cc1nc2ccccc2n1[C@H]1C[C@H]2CC[C@@H](C1)N2[C@]1(C)CC[C@H](NC(=O)c2ccc(Cl)c(S(N)(=O)=O)c2)CC1 | 870 |
| Cc1nc2ccccc2n1[C@H]1C[C@H]2CC[C@@H](C1)N2[C@]1(C)CC[C@H](NC(=O)c2c(Cl)ccc(S(N)(=O)=O)c2Cl)CC1 | 20000 |
| Cc1nc2ccccc2n1[C@H]1C[C@H]2CC[C@@H](C1)N2CC[C@]1(c2ccccc2)CC[C@H](NC(=O)c2ccc(Cl)c(S(N)(=O)=O)c2)CC1 | 58 |
| Cc1nc2ccccc2n1[C@H]1C[C@H]2CC[C@@H](C1)N2CC[C@]1(c2ccccc2)CC[C@H](NC(=O)c2ccc(S(N)(=O)=O)cc2Cl)CC1 | 230 |
| Cc1nc2ccccc2n1[C@H]1C[C@H]2CC[C@@H](C1)N2CC[C@]1(c2ccccc2)CC[C@H](NC(=O)c2ccc(S(N)(=O)=O)cc2F)CC1 | 1800 |
